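Compound exposure: 48 hours, 5 concentrations, 96-well plates. GI50 = concentration required for 50% inhibition of growth. TGI: total growth inhibition.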
Columns and labels:
Test in all cases: growth of human tumour cells (NCI), 48 h
786-0 renal = tested on: 786-0 renal
A498 renal = tested on: A498 renal
A549 NSCLC = tested on: A549 NSCLC
ACHN renal = tested on: ACHN renal
BT-549 breast = tested on: BT-549 breast
CAKI-1 renal = tested on: CAKI-1 renal
CCRF-CEM leukemia = tested on: CCRF-CEM leukemia
COLO 205 colon = tested on: COLO 205 colon
DU-145 prostate = tested on: DU-145 prostate
EKVX NSCLC = tested on: EKVX NSCLC
HCC-2998 colon = tested on: HCC-2998 colon
HCT-116 colon = tested on: HCT-116 colon
HCT-15 colon = tested on: HCT-15 colon
HL-60(TB) leukemia = tested on: HL-60(TB) leukemia
HOP-62 NSCLC = tested on: HOP-62 NSCLC
HOP-92 NSCLC = tested on: HOP-92 NSCLC
HS 578T breast = tested on: HS 578T breast
HT29 colon = tested on: HT29 colon
IGROV1 ovarian = tested on: IGROV1 ovarian
K-562 leukemia = tested on: K-562 leukemia
KM12 colon = tested on: KM12 colon
LOX IMVI melanoma = tested on: LOX IMVI melanoma
M14 melanoma = tested on: M14 melanoma
MALME-3M melanoma = tested on: MALME-3M melanoma
MCF7 breast = tested on: MCF7 breast
MDA-MB-231 breast = tested on: MDA-MB-231 breast
MDA-MB-435 = tested on: MDA-MB-435
MOLT-4 leukemia = tested on: MOLT-4 leukemia
NCI-H226 lung = tested on: NCI-H226 lung
NCI-H23 lung = tested on: NCI-H23 lung
NCI-H460 lung = tested on: NCI-H460 lung
NCI-H522 lung = tested on: NCI-H522 lung
NCI/ADR-RES ovarian = tested on: NCI/ADR-RES ovarian
OVCAR-3 ovarian = tested on: OVCAR-3 ovarian
OVCAR-4 ovarian = tested on: OVCAR-4 ovarian
OVCAR-5 ovarian = tested on: OVCAR-5 ovarian
OVCAR-8 ovarian = tested on: OVCAR-8 ovarian
PC-3 prostate = tested on: PC-3 prostate
RPMI-8226 leukemia = tested on: RPMI-8226 leukemia
RXF 393 renal = tested on: RXF 393 renal
SF-268 CNS = tested on: SF-268 CNS
SF-295 CNS = tested on: SF-295 CNS
SF-539 CNS = tested on: SF-539 CNS
SK-MEL-2 melanoma = tested on: SK-MEL-2 melanoma
SK-MEL-28 melanoma = tested on: SK-MEL-28 melanoma
SK-MEL-5 melanoma = tested on: SK-MEL-5 melanoma
SK-OV-3 ovarian = tested on: SK-OV-3 ovarian
SN12C renal = tested on: SN12C renal
SNB-19 CNS = tested on: SNB-19 CNS
SNB-75 CNS = tested on: SNB-75 CNS
SR leukemia = tested on: SR leukemia
SW-620 colon = tested on: SW-620 colon
T-47D breast = tested on: T-47D breast
TK-10 renal = tested on: TK-10 renal
U251 CNS = tested on: U251 CNS
UACC-257 melanoma = tested on: UACC-257 melanoma
UACC-62 melanoma = tested on: UACC-62 melanoma
UO-31 renal = tested on: UO-31 renal

## CCN(CC)c1ccc(/C=N/NC(=O)c2ccc(S(N)(=O)=O)cc2)c(O)c1
786-0 renal
  GI50: 370 nM
  TGI: 8870 nM
A498 renal
  GI50: 982 nM
  TGI: 32700 nM
A549 NSCLC
  GI50: 1440 nM
  TGI: > 100000 nM
ACHN renal
  GI50: 465 nM
  TGI: > 100000 nM
BT-549 breast
  GI50: 480 nM
  TGI: 7730 nM
CAKI-1 renal
  GI50: 393 nM
  TGI: 30900 nM
CCRF-CEM leukemia
  GI50: 105 nM
  TGI: > 100000 nM
COLO 205 colon
  GI50: 296 nM
  TGI: 27000 nM
DU-145 prostate
  GI50: 540 nM
  TGI: > 79600 nM
EKVX NSCLC
  GI50: 397 nM
  TGI: > 100000 nM
HCC-2998 colon
  GI50: 419 nM
  TGI: > 80100 nM
HCT-116 colon
  GI50: 205 nM
  TGI: 56700 nM
HCT-15 colon
  GI50: 318 nM
  TGI: > 100000 nM
HL-60(TB) leukemia
  GI50: 206 nM
HOP-62 NSCLC
  GI50: 226 nM
  TGI: 7180 nM
HOP-92 NSCLC
  GI50: 216 nM
  TGI: 13100 nM
HS 578T breast
  GI50: 2250 nM
  TGI: > 68000 nM
HT29 colon
  GI50: 485 nM
  TGI: > 54900 nM
IGROV1 ovarian
  GI50: 437 nM
  TGI: > 100000 nM
K-562 leukemia
  GI50: 408 nM
  TGI: > 100000 nM
KM12 colon
  GI50: 579 nM
  TGI: > 100000 nM
LOX IMVI melanoma
  GI50: 187 nM
  TGI: 3610 nM
M14 melanoma
  GI50: 351 nM
  TGI: 7140 nM
MALME-3M melanoma
  GI50: 482 nM
  TGI: 9430 nM
MCF7 breast
  GI50: 399 nM
  TGI: > 100000 nM
MDA-MB-231 breast
  GI50: 389 nM
  TGI: 28600 nM
MDA-MB-435
  GI50: 659 nM
  TGI: > 100000 nM
MOLT-4 leukemia
  GI50: 322 nM
  TGI: > 100000 nM
NCI-H226 lung
  GI50: 821 nM
  TGI: > 29600 nM
NCI-H23 lung
  GI50: 1110 nM
  TGI: > 100000 nM
NCI-H460 lung
  GI50: 467 nM
  TGI: 6730 nM
NCI-H522 lung
  GI50: 310 nM
  TGI: > 45300 nM
NCI/ADR-RES ovarian
  GI50: 1390 nM
  TGI: > 100000 nM
OVCAR-3 ovarian
  GI50: 137 nM
  TGI: > 100000 nM
OVCAR-4 ovarian
  GI50: 304 nM
  TGI: > 85400 nM
OVCAR-5 ovarian
  GI50: 1640 nM
  TGI: > 84500 nM
OVCAR-8 ovarian
  GI50: 279 nM
  TGI: > 49600 nM
PC-3 prostate
  GI50: 345 nM
  TGI: > 100000 nM
RPMI-8226 leukemia
  GI50: 3640 nM
  TGI: > 100000 nM
RXF 393 renal
  GI50: 541 nM
  TGI: 8710 nM
SF-268 CNS
  GI50: 220 nM
  TGI: 17200 nM
SF-295 CNS
  GI50: 528 nM
  TGI: 20500 nM
SF-539 CNS
  GI50: 390 nM
  TGI: 7870 nM
SK-MEL-2 melanoma
  GI50: 2250 nM
  TGI: 53100 nM
SK-MEL-28 melanoma
  GI50: 352 nM
  TGI: > 64500 nM
SK-MEL-5 melanoma
  GI50: 537 nM
  TGI: > 20300 nM
SK-OV-3 ovarian
  GI50: 394 nM
  TGI: 18400 nM
SN12C renal
  GI50: 638 nM
  TGI: > 64800 nM
SNB-19 CNS
  GI50: 669 nM
  TGI: 29900 nM
SNB-75 CNS
  GI50: 351 nM
SR leukemia
  GI50: 63.1 nM
SW-620 colon
  GI50: 429 nM
  TGI: > 100000 nM
T-47D breast
  GI50: 2030 nM
  TGI: > 100000 nM
TK-10 renal
  GI50: 373 nM
  TGI: 40100 nM
U251 CNS
  GI50: 159 nM
  TGI: 16500 nM
UACC-257 melanoma
  GI50: 404 nM
  TGI: 5330 nM
UACC-62 melanoma
  GI50: 346 nM
  TGI: 5140 nM
UO-31 renal
  GI50: 399 nM
  TGI: > 100000 nM
